Laboratory results as given in patent US11452721B2, “Formulations of pimavanserin” (ACADIA Pharmaceuticals Inc., priority 2017, dated 2022).

What was measured:
[1] = tested on: DOI ((±)-2,5-dimethoxy-4-iodoamphetamine, a serotonin agonist) induced head twitches; settings: rat; oral doses of 3 and 10 mg/kg; cited from earlier work
[2] = tested on: hyperactivity induced by the N-methyl-D-aspartate antagonist MK-801; settings: mice; oral doses of 3 and 10 mg/kg; cited from earlier work
[3] = Laser light scattering particle size distribution (Malvern Mastersizer 2000); assay type: physicochemical; settings: before vs after granulation, FIG. 4/5
Text: The small quantity of water, its application using appropriate water atomization and/or water application rate are important reasons for the improved properties of pimavanserin. […] The actual amount of water to be sprayed at the granulation of pimavanserin may vary from batch to batch (depending on surrounding factors such as humidity, temperature, exact properties of the API batch, etc) but is still consider to be a small amount, e.g. 3-10% w/w based on the dry ingredients. The amount of water and the granulation process disclosed herein is controlled by controlling the impeller energy to achieve the targeted impeller speed. The appropriate impeller speed ensures sufficient mixing and controls the growth of granules. The specific small amount of water needed for each batch is controlled by the power consumption (amperage) of the granulator, i.e., if the amperage is […], additional amounts of water could be sprayed to the granulate in order to obtain pimavanserin having the properties desired in order to pharmaceutically manufacture capsules comprising 5-34 mg pimavanserin. […] The properties are achieved via a manufacturing process that includes granulation, using a suitable granulator, e.g. a high shear granulator, simultaneously spraying the adequate amount of water while mixing, followed by screening, and blending appropriate quantities of excipients. […]

[4] = Bulk density according to USP <616> method 1; assay type: physicochemical
Procedure: (§1) Carr's Index compares the difference between the bulk density and tapped density of a substance to determine its compressibility. The bulk density and the Carr's Index may be determined in accordance with USP<616> (method for performing Bulk and Tapped Densities, method 1) and USP<1174> (definition of powder flow) respectively.
(§2) Table 1 visualizes that filling of a capsule, in particular a capsule of size 3 or 4 (capsule volumes of 0.30 and 0.21 ml respectively, approximately 120 mg and 85 mg respectively at a bulk density of […]). As evident from Table 1, native pimavanserin (API) would be challenging for a size 3 capsule and not possible for a capsule of size 4 without improving the bulk density (as comparison 85 mg of pimavanserin granulation would require about 0.17 ml compared to 0.29 ml for the native API) and flowability (Carr index is frequently used in pharmaceutical manufacturing as an indication of the flowability of a powder, e.g. 2016 U.S. Pharmacopoeias-National Formulary [USP 35 NF 30]).
The bulk density of the blended composition is >0.4 g/ml, such as 0.4-0.6 g/ml, such as about 0.5 g/ml determined according to USP <616>, method 1. […]
The bulk density of pimavanserin granulation is >0.4 g/ml, such as 0.4-0.6 g/ml, such as about 0.5 g/ml, determined according to USP <616>, method 1. […]

[5] = Carr's Index (Carr's Compressibility Index), USP <616>/<1174>; assay type: physicochemical
Procedure: as §1, §2

[6] = FT4 Powder Rheology (FT4 Powder Rheometer, ASTM D7891-15); assay type: physicochemical; settings: FT4 measurement
Text: In addition to the bulk density and Carr's Index obtained according to USP <616>, method 1, FT4 Powder Rheology was obtained for the API (pimavanserin tartrate) and for the compositions disclosed herein using a FT4 Powder Rheometer according to ASTM D7891-15; Standard Test Method for Shear Testing of Powders Using the Freeman Technology FT4 Powder Rheometer Shear Cell.
As discussed herein above the flowability of the composition has been improved compared to the API (pimavanserin tartrate), which for example can be supported by the Specific Energy (SE) obtained from the FT4 measurements. Specific Energy is a measure of the powder's flowability when unconfined, such as during low stress filling, or low shear blending. The average Specific Energy (SE) for the API is about 10.08+/−0.23 mJ/g.
The FT4 Powder Rheometer was also used as yet another means to compare the bulk density between the API, the granulated pimavanserin and the blended pimavanserin compositions disclosed herein and in the accompanying claims. The bulk density is a conditioned bulk density as obtained by the FT4 measurement, in accordance with ASTM D7891-15; Standard Test Method for Shear Testing of Powders Using the Freeman Technology FT4 Powder Rheometer Shear Cell.
The blended pimavanserin composition used in the herein mention FT4 Powder Rheometry measurements comprised 34 mg pimavanserin, 59 mg microcrystalline cellulose and 1 mg magnesium stearate.

particle size distribution D90 [3] | volume required by 85 mg ([4]; 85 mg of material, from bulk density) | Bulk density according to USP <616> ([4]; USP <616> method 1) | Carr's Index [5] | average Flow Rate Index (FRI) [6] | average Specific Energy (SE) [6] | average conditioned bulk density (CBD) ([6]; ASTM D7891-15) | Compound | activity in DOI induced head twitches [1] | attenuation of MK-801 induced hyperactivity [2]
– | – | – | – | – | – | – | CC(C)COc1ccc(CNC(=O)N(Cc2ccc(F)cc2)C2CCN(C)CC2)cc1 [Pimavanserin, N-(1-methylpiperidin-4-yl)-N-(4-fluorophenylmethyl)-N′-(4-(2-methylpropyloxy)phenylmethyl)carbamide] | effective | effective
about 30 μm | 0.29 mL | 0.294 g/mL | 36 | 1.90±0.01 | about 10.08+/−0.23 mJ/g | 0.336 ± 0.006 g/mL | pimavanserin tartrate [Native API] | – | –
